Tests used:
Experiment in all cases: relative viability (nuclei count vs DMSO), 5 days (fraction); higher = more cells survive
JZL-184 + Pictilisib = compound: C1CN(CCC1C(C2=CC3=C(C=C2)OCO3)(C4=CC5=C(C=C4)OCO5)O)C(=O)OC6=CC=C(C=C6)[N+](=O)[O-] [JZL-184] + CS(=O)(=O)N1CCN(Cc2cc3nc(-c4cccc5[nH]ncc45)nc(N4CCOCC4)c3s2)CC1 [Pictilisib] (partner 1 µM)
Procedure, shortened: (§1)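 For relative viability, nuclei counts in treated wells were divided by those in vehicle wells. Lung cancer cell lines had been pin-tool dosed in 1536-well plates the day after seeding and cultured for 5 days, then fixed and stained in one step (final 0.05% Triton X-100, 1% formaldehyde, 1 ug/ml Hoechst) and imaged at 4×. Doses were one drug alone or a fixed anchor-drug dose plus five library-drug doses (not always all listed) in √10 steps, and values are duplicate-plate medians.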

JZL-184 + Phenformin = compound: C1CN(CCC1C(C2=CC3=C(C=C2)OCO3)(C4=CC5=C(C=C4)OCO5)O)C(=O)OC6=CC=C(C=C6)[N+](=O)[O-] [JZL-184] + N=C(N)NC(=N)NCCc1ccccc1 [Phenformin] (partner 250 µM)
Procedure, shortened: as §1

JZL-184 + Dasatinib = compound: C1CN(CCC1C(C2=CC3=C(C=C2)OCO3)(C4=CC5=C(C=C4)OCO5)O)C(=O)OC6=CC=C(C=C6)[N+](=O)[O-] [JZL-184] + Cc1nc(Nc2ncc(C(=O)Nc3c(C)cccc3Cl)s2)cc(N2CCN(CCO)CC2)n1 [Dasatinib] (partner 0.075 µM)
Procedure, shortened: as §1

JZL-184 + Lapatinib = compound: C1CN(CCC1C(C2=CC3=C(C=C2)OCO3)(C4=CC5=C(C=C4)OCO5)O)C(=O)OC6=CC=C(C=C6)[N+](=O)[O-] [JZL-184] + CS(=O)(=O)CCNCc1ccc(-c2ccc3ncnc(Nc4ccc(OCc5cccc(F)c5)c(Cl)c4)c3c2)o1 [Lapatinib] (partner 2 µM)
Procedure, shortened: as §1

JZL-184 + Alpelisib = compound: C1CN(CCC1C(C2=CC3=C(C=C2)OCO3)(C4=CC5=C(C=C4)OCO5)O)C(=O)OC6=CC=C(C=C6)[N+](=O)[O-] [JZL-184] + Cc1nc(NC(=O)N2CCC[C@H]2C(N)=O)sc1-c1ccnc(C(C)(C)C(F)(F)F)c1 [Alpelisib] (partner 2 µM)
Procedure, shortened: as §1

| Cell Line | relative viability (JZL-184 + Pictilisib; first compound 0.04 µM) | relative viability (JZL-184 + Pictilisib; first compound 0.4 µM) | relative viability (JZL-184 + Pictilisib; first compound 1.265 µM) | relative viability (JZL-184 + Pictilisib; first compound 4 µM) | relative viability (JZL-184 + Phenformin; first compound 0.04 µM) | relative viability (JZL-184 + Phenformin; first compound 0.4 µM) | relative viability (JZL-184 + Phenformin; first compound 1.265 µM) | relative viability (JZL-184 + Phenformin; first compound 4 µM) | relative viability (JZL-184 + Dasatinib; first compound 0.04 µM) | relative viability (JZL-184 + Dasatinib; first compound 0.4 µM) | relative viability (JZL-184 + Dasatinib; first compound 1.265 µM) | relative viability (JZL-184 + Dasatinib; first compound 4 µM) | relative viability (JZL-184 + Lapatinib; first compound 0.04 µM) | relative viability (JZL-184 + Lapatinib; first compound 0.4 µM) | relative viability (JZL-184 + Lapatinib; first compound 1.265 µM) | relative viability (JZL-184 + Lapatinib; first compound 4 µM) | relative viability (JZL-184 + Alpelisib; first compound 0.04 µM) | relative viability (JZL-184 + Alpelisib; first compound 0.4 µM) | relative viability (JZL-184 + Alpelisib; first compound 1.265 µM) | relative viability (JZL-184 + Alpelisib; first compound 4 µM) |
| --- | --- | --- | --- | --- | --- | --- | --- | --- | --- | --- | --- | --- | --- | --- | --- | --- | --- | --- | --- | --- |
| 201T | 0.743 | 0.67 | 0.727 | 0.649 | 0.451 | 0.44 | 0.465 | 0.45 | 0.577 | 0.535 | 0.61 | 0.574 | 1.09 | 1.06 | 0.981 | 1.02 | 0.991 | 1.05 | 1.04 | 0.997 |
| A549 | 0.643 | 0.451 | 0.478 | 0.498 | 0.195 | 0.167 | 0.164 | 0.112 | – | – | – | – | 1.06 | 0.967 | 0.955 | 1.01 | 0.966 | 0.588 | 0.894 | 0.614 |
| A-427 | 0.797 | 0.639 | 0.852 | 0.697 | 0.308 | 0.327 | 0.441 | 0.306 | 0.785 | 0.683 | 0.71 | 0.706 | 1.17 | 1.05 | 1.01 | 1.09 | 1.08 | 1.06 | 1.1 | 0.979 |
| ABC-1 | 0.946 | 0.71 | 0.898 | 0.625 | 0.225 | 0.224 | 0.301 | 0.247 | 0.601 | 0.479 | 0.533 | 0.482 | 1.09 | 0.947 | 1.07 | 1.19 | 1.1 | 0.996 | 1.06 | 0.952 |
| BEN | 0.661 | 0.515 | 0.637 | 0.54 | 0.245 | 0.235 | 0.271 | 0.279 | 0.333 | 0.349 | 0.328 | 0.337 | 0.865 | 0.671 | 0.939 | 0.819 | 1.18 | 0.998 | 1.12 | 1.03 |
| CAL-12T | 0.415 | 0.263 | 0.686 | 0.422 | 0.751 | 0.26 | 0.626 | 0.539 | 0.515 | 0.254 | 0.488 | 0.341 | 0.701 | 0.529 | 0.789 | 0.593 | 1.5 | 1.39 | 1.08 | 1.17 |
| COR-L23 | 0.945 | 0.775 | 0.842 | 0.757 | 0.552 | 0.401 | 0.438 | 0.429 | 0.596 | 0.425 | 0.514 | 0.407 | 1.26 | 0.818 | 0.889 | 0.823 | 1.02 | 0.672 | 0.704 | 0.708 |
| COR-L 105 | 0.448 | 0.41 | 0.368 | 0.37 | 0.595 | 0.497 | 0.548 | 0.436 | 0.493 | 0.389 | 0.35 | 0.336 | 0.349 | 0.352 | 0.394 | 0.327 | 0.998 | 1.2 | 0.837 | 0.916 |
| ChaGo-K-1 | 1.03 | 0.585 | 1.04 | 0.741 | 0.616 | 0.449 | 0.467 | 0.44 | 0.657 | 0.581 | 0.61 | 0.595 | – | – | – | – | – | – | – | – |
| EKVX | 0.501 | 0.407 | 0.446 | 0.432 | 0.236 | 0.243 | 0.244 | 0.238 | 0.474 | 0.536 | 0.576 | 0.581 | 0.193 | 0.221 | 0.194 | 0.2 | 0.679 | 0.84 | 0.875 | 0.886 |
| EMC-BAC-2 | 0.59 | 0.559 | 0.565 | 0.488 | 0.609 | 0.476 | 0.568 | 0.456 | 0.349 | 0.32 | 0.336 | 0.326 | 0.96 | 0.869 | 0.971 | 0.83 | 0.794 | 0.733 | 0.776 | 0.729 |
| EPLC-272H | 0.317 | 0.271 | 0.38 | 0.314 | 0.303 | 0.293 | 0.351 | 0.34 | 0.403 | 0.41 | 0.445 | 0.325 | 1.07 | 1.02 | 0.972 | 0.944 | 0.953 | 0.817 | 1.01 | 0.966 |
| H3255 | 0.524 | 0.454 | 0.526 | 0.49 | 0.321 | 0.323 | 0.336 | 0.422 | 0.353 | 0.346 | 0.288 | 0.38 | 0.234 | 0.267 | 0.261 | 0.321 | 0.794 | 0.725 | 0.714 | 0.577 |
| HARA | 0.356 | 0.363 | 0.424 | 0.577 | 0.376 | 0.39 | 0.481 | 0.407 | 0.309 | 0.16 | 0.29 | 0.28 | 0.839 | 0.773 | 0.807 | 0.751 | 0.941 | 0.824 | 0.853 | 0.845 |
| HCC-15 | 0.957 | 0.664 | 0.814 | 0.697 | 0.548 | 0.467 | 0.485 | 0.454 | 0.647 | 0.673 | 0.677 | 0.524 | 0.988 | 0.813 | 0.943 | 0.778 | 0.933 | 0.899 | 0.877 | 0.931 |
| HCC-44 | 0.592 | 0.549 | 0.622 | 0.528 | 0.231 | 0.104 | 0.245 | 0.185 | – | – | – | – | 1.15 | 0.93 | 1.08 | 1.07 | 0.671 | 0.8 | 0.749 | 0.74 |

From the supplement of paper PMC10307832
